Patent US20110076272A1, “THERAPEUTIC METHODS AND COMPOSITIONS” (priority 2009, published 2011)

Key:
MCF7 cells = assay: Induction of EMT-like phenotype by LOXL2-containing conditioned media (rhodamine-phalloidin staining); format: cell-based; details: MDA-MB231 or Hs-578t conditioned media; BAPN up to 2 mM
Description: Cells were seeded at 80% confluency, in an 8-chambered slide, 24 hours prior to the day of staining. After 24 hours, media was aspirated and the chambers were washed with PBS. Cells were then fixed with 4% Parafomaldehyde (PFA) for 20 minutes at room temperature and then permeabilized with 0.5% Saponin (JT Baker, Phillipsburg, N.J.) for 5 minutes at room temperature. Cells were then stained for 15 minutes at room temperature with a 1:100 dilution of rhodamine phalloidin (Invitrogen, Carlsbad, Calif.). Slides were mounted with Vectashield (Vector Laboratories, Burlingame, Calif.).
MCF7 or SW620 cells were seeded at 50,000 cells per well of an 8-chambered culture slide in HGDMEM (high-glucose Dulbecco's modified Eagle's medium containing 4.5 g/l glucose)+10% FBS, 2 mM L-glutamine, 24 hours prior to being exposed to conditioned medium (CM). 500 uls of fresh conditioned medium from MDA MB 231 cells was added to the chambers containing MCF7 cells. The cells were incubated with the CM for 48-96 hours. Conditioned medium from MCF7 or SW620 cells was used as a negative control. After 48-96 hours incubation with CM, the cells were stained with rhodamine-phalloidin as described above.

[1] = system: purified recombinant human LOXL2; assay: Amplex Red assay of LOXL2 enzymatic activity; format: biochemical
Description: A mouse anti-human LOXL2 antibody (AB0023) was obtained by immunization with full-length LOXL2 protein and purified by SEC-HPLC (Tosoh TSKGEL G3000SWXL 7.8×300). Analytical size exclusion chromatography was used to assess antibody stability and purity. Purified AB0023 was run on SDS-PAGE Coomassie (Invitrogen BT 4-12% Gels) reducing and non-reducing gels to assess purity. Potency was examined by ELISA to determine Kd, and effect on LOXL2 enzymatic activity was determined using an Amplex Red Assay (Molecular Probes/Invitrogen, Carlsbad, Calif.). Antibody concentration was measured by absorbance at 280 nm using an Extinction Coefficient Abs 0.1% of 1.4. Identity was assayed by isoelectric focusing (Invitrogen pH 3-10 IEF Gels). For safety analysis, endotoxin levels were measured at a sensitivity range of 0.01-1 EU/ml (Charles River EndoSafe PTS).

[2] = system: MDA-MB-435 established primary tumors; assay: MDA-MB-435 established primary tumor xenograft model; format: in vivo, mouse; details: independent study; AB0023 5 mg/kg twice per week, BAPN 100 mg/kg daily
[3] = system: MDA-MB-435 established primary tumors; assay: as above; format: in vivo, mouse; set-up: reduction in activated TAFs assessed by aSMA signal / reduction in VEGF signal versus vehicle-treated tumors / reduction in SDF-1/CXCL12 signal / reduction in LOXL2 signal: concentration or dose not given beside the values
Description: To provide growing tumor tissue stock for subsequent orthotopic implantation, five- to six-week-old nude mice (NCr nu/nu) were injected subcutaneously with 2×10^6 MDA-MB-435-GFP cells (Anticancer, Inc., San Diego, Calif.) on the right flank. For this purpose, cultures of MDA-MB-435-GFP cells were harvested and dissociated by trypsinization, washed three times with cold serum-containing medium, and then kept on ice until injection. Cells were injected into the subcutaneous space of the flank of the animal in a total volume of 0.1 ml, within 30 min of harvesting. The nude mice were sacrificed to harvest tumor tissue 4 to 6 weeks after tumor cell injection for surgical orthotopic implantation (SOI) of tumor fragments.
Tumor pieces (˜1 mm^3), extracted from subcutaneously-growing GFP-expressing breast tumors, were implanted by surgical orthotopic implantation (SOI) on the breast of female nude mice (NCr nu/nu). Treatments with AB0023 (anti-LOXL2 monoclonal antibody), M64 (anti-LOX monoclonal antibody) and vehicle (all via intraperitoneal injection) and with Taxotere (by intravenous injection) were initiated when the average primary tumor volume reached 75 mm^3. Mice were administered the antibodies at a dose of 30 mg/kg twice a week for 28 days and Taxotere, at 10 mg/kg, was administered once a week for 3 weeks.
Body weight and tumor size were recorded weekly. At the conclusion of the study, mice were sacrificed by cervical dislocation after being anesthetized with carbon dioxide. Primary breast tumors were imaged, harvested, cut in half symmetrically and snap-frozen for histological and immunohistochemical analyses.
The solutions used for the immunohistochemistry (IHC) protocols were obtained from Biocare Medical (Concord, Calif.) unless otherwise stated. All procedures were performed at room temperature. Slides were fixed with 4% PFA for 10 minutes and were subsequently treated with Peroxidazed-1 (Biocare Medical, Concord, Calif.) for 5 minutes. Then, the slides were background blocked with SNIPER (Biocare Medical, Concord, Calif.) for 10 minutes. Primary antibody (2-5 ug/ml final concentration) was diluted in Da Vinci Green Universal Diluent and applied to slides for 30 minutes. Slides were then rinsed in PBS-Tween-20. The Mach2 polymer kit was used for antigen detection by adding rabbit probe for 30 minutes. DAB chromagen was added to the slides for 3-5 minutes, then slides were rinsed once with deionized water. The slides were then counter-stained with hematoxylin, followed by dehydration with graded alcohol. The slides were mounted with entellan mounting medium (Electron Microscopy Sciences, Hatfield, Pa.).

[4] = molecular target: T1, human lysyl oxidase-like 2 (LOXL2) (human, UniProt Q9Y4K0 26-774); assay: cell-based or functional assay
T1 sequence (looked up): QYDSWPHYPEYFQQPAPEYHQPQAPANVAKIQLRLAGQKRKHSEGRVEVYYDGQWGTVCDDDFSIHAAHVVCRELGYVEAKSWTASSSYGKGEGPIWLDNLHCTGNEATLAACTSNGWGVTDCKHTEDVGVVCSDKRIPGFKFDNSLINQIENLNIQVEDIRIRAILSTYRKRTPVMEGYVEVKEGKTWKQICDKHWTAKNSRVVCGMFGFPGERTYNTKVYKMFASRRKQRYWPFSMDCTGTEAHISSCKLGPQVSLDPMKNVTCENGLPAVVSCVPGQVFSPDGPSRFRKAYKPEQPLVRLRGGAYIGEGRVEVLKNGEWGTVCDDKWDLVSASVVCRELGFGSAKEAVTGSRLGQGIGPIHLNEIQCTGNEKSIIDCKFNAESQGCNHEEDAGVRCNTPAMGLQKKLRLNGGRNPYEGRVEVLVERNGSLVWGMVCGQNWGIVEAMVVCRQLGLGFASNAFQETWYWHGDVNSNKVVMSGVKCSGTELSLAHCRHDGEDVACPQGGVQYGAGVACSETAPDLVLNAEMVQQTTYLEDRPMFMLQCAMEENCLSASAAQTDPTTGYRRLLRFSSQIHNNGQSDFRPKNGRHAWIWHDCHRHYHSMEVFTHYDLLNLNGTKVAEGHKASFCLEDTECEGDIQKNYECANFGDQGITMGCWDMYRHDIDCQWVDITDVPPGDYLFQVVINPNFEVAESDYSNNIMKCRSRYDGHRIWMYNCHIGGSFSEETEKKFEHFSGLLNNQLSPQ

[5] = molecular target: T2, lysyl oxidase-like 3 (LOXL3) (UniProt P58215 26-753, limits assumed); assay: Western blot probed with AB0023 [Cont. 2) panel m]
T2 construct: Member of 'other lysyl oxidase-type enzymes'; also called LOR-2
T2 sequence (looked up): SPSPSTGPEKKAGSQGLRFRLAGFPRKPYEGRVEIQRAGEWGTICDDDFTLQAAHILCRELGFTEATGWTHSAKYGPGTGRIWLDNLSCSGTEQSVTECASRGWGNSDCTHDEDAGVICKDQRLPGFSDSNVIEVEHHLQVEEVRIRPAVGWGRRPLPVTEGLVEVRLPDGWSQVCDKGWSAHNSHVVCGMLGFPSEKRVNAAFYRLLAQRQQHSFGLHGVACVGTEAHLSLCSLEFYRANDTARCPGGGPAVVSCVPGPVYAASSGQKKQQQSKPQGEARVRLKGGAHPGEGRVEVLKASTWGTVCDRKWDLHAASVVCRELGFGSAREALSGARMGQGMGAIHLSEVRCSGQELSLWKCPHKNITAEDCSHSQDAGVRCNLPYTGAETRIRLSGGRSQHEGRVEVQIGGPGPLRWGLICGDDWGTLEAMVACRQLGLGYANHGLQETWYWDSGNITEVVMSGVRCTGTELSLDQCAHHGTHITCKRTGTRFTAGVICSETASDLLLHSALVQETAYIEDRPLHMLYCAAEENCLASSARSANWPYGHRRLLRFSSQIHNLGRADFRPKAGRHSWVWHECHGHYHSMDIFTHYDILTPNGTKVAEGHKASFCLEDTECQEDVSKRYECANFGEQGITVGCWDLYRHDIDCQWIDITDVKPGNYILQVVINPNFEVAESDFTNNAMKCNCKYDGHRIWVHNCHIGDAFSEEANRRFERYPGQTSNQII

[6] = molecular target: T3, lysyl oxidase-like 4 (LOXL4) (UniProt Q96JB6 25-756, limits assumed); assay: Western blot probed with AB0023 [Cont. 2) panel m]
T3 construct: Member of 'other lysyl oxidase-type enzymes'
T3 sequence (looked up): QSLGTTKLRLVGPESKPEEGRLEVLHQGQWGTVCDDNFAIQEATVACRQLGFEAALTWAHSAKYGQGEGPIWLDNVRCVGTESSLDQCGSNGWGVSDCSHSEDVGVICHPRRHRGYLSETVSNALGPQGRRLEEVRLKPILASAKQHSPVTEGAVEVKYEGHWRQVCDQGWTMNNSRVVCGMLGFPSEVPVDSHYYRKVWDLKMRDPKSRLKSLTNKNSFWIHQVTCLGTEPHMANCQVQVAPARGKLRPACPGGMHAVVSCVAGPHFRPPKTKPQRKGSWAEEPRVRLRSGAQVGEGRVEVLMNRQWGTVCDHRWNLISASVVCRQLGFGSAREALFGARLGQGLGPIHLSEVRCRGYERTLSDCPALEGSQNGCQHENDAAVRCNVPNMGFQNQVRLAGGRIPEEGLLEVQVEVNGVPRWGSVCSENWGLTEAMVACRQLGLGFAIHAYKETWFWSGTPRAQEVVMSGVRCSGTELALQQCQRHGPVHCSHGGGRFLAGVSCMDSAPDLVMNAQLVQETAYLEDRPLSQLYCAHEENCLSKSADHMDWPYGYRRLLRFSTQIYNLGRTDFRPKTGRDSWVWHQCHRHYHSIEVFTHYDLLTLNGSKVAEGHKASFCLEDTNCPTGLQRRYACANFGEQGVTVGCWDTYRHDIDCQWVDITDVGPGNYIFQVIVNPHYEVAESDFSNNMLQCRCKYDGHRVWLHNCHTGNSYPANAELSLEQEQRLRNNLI

lysyl oxidase (LOX) = molecular target: T4, lysyl oxidase (LOX) (UniProt P28300 169-417, limits assumed); assay: Western blot probed with AB0023 [Cont. 2) panel m]
T4 construct: Member of 'other lysyl oxidase-type enzymes'
T4 sequence (looked up): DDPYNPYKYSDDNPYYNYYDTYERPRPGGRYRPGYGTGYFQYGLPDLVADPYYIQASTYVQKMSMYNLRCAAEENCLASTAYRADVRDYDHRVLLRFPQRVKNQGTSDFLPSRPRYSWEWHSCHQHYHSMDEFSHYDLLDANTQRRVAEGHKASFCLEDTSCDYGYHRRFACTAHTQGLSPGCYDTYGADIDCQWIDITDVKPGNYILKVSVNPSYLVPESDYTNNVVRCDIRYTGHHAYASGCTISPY

[7] = Pilot repeat-dose studies in cynomolgus monkeys; format: in vivo; details: repeat dosing at 100 mg/kg

Molecule: N#CCCN [BAPN, beta-aminoproprionitrile, reference compound]
- remodeling of the actin cytoskeleton induced by LOXL2-containing conditioned media (MCF7 cells): not inhibited
- mode of inhibition of LOXL2 [1]: competitive inhibitor
- inhibition of LOXL2 enzymatic activity ([1]; in vitro): inhibited
- IC50 for inhibition of LOXL2 (in words) ([1]; in vitro, FIG. 8 panel D): low nanomolar
- reduction in tumor vasculature, CD31 signal [2]: no reduction
- reduction in tumor volume after 46 days [2]: 19%

Molecule: CC(=O)O[C@@]12CO[C@@H]1C[C@H](O)[C@@]1(C)C(=O)[C@H](O)C3=C(C)[C@@H](OC(=O)[C@H](O)[C@@H](NC(=O)OC(C)(C)C)c4ccccc4)C[C@@](O)([C@@H](OC(=O)c4ccccc4)[C@H]21)C3(C)C [Taxotere, reference compound]
- levels of Beclin-1 (autophagy) in tumor cells ([3]; mouse, in vivo): increased
- reduction in Sirius red staining (crosslinked collagen, desmoplasia) ([3]; tumors harvested at day 39): No significant differences
- reduction in activated TAFs assessed by aSMA signal ([3]; tumors harvested at day 39): No significant differences
- reduction in tumor vasculature, CD31 signal ([3]; tumors harvested at day 39): 43%

B1: anti-LOXL2 monoclonal antibody AB0023 (antibody, V domains shown)
VH: QVQLQQSGAELVRPGTSVKVSCKASGYAFTYYLIEWVKQRPGQGLEWIGVINPGSGGTNYNEKFKGKATLTADKSSSTAYMQLSSLTSDDSAVYFCARNWMNFDYWGQGTTLTVSS
VL: DIVMTQAAPSVSVTPGESVSISCRSSKSLLHSNGNTYLYWFLQRPGQSPQFLIYRMSNLASGVPDRFSGSGSGTAFTLRISRVEAEDVGVYYCMQHLEYPYTFGGGTKLEIK
notes: Mouse monoclonal antibody from a hybridoma, raised against full-length LOXL2 and purified from ascites; also called mouse anti-human LOXL2 antibody; LOXL2-specific monoclonal antibody
- IC50, HUVEC tube formation assay, FIG. 4 Panel I (mean total tubule length) [4]: 33.2 nM
- apparent IC50 for inhibition of purified LOXL2 enzymatic activity [4]: ~30 nM
- binding result [5]: no binding
- binding result [6]: no binding
- binding result (lysyl oxidase (LOX)): no binding

B2: AB0024: humanized anti-LOXL2 variant of AB0023; heavy chain variable region SEQ ID NO:3, light chain SEQ ID NO:4 (antibody, listed as Mus musculus, V domains shown)
VH: QVQLVQSGAEVKKPGASVKVSCKASGYAFTYYLIEWVRQAPGQGLEWIGVINPGSGGTNYNEKFKGRATITADKSTSTAYMELSSLRSEDTAVYFCARNWMNFDYWGQGTTVTVSS
VL: DIVMTQTPLSLSVTPGQPASISCRSSKSLLHSNGNTYLYWFLQKPGQSPQFLIYRMSNLASGVPDRFSGSGSGTDFTLKISRVEAEDVGVYYCMQHLEYPYTFGGGTKVEIK
modifications: Humanized heavy chain; Humanized light chain
- tolerability [7]: well tolerated
- mode of inhibition of LOXL2 [1]: non-competitive allosteric inhibitors
